The values below are quoted from earlier work in patent US6004532A, “Formulation for Tin-^117m /diethylenetriaminepentaacetic acids” (Brookhaven Science Associates, priority 1998, dated 1999).

One series has as its system bone marrow. The note with it: for contamination and radiation cystitis risk: therapeutic doses.

Regarding `O=[32P](O)(O)O` [^32 P orthophosphate], in the series with bone pain (pretreatment with androgen, after administration), the “onset of pain relief” value is listed as “five to fourteen”.
As for `O=P([O-])(O)CN(CCN(CP(=O)([O-])O)CP(=O)(O)O)CP(=O)([O-])O.[153Sm+3]` [^153 Sm-EDTMP, ^153 Sm ethylenediaminetetramethylenephosphonate], the “urinary excretion of radioactivity” value (therapeutic doses 35 to 210 mCi) is on record as “large amounts of radioactivity can be excreted in the patient's urine”. Also, in the series with bone pain (human, in vivo), the “duration of pain relief” value was “four to forty”, the “onset of clinical benefit / pain relief” value is reported as “two” and the “onset of clinical benefit / symptom relief (frequently)” value is at most 48 h. Also, the myelosuppression entry with bone marrow (human, in vivo) is reported as “Reversible myelosuppression”. For the same compound, the “contamination and radiation cystitis risk” value in the series with bone marrow was “creating contamination risks and potentially causing radiation cystitis”.
Regarding “^117m Sn (Sn^4+) diethylenetriaminepentaacetic acid [^117m Sn (Sn^4+) DTPA]”, the “bone uptake and retention compared with ^32 P orthophosphate, ^153 Sm-EDTMP, ^186 Re-HEDP, and ^89 SrCl2” value (human, in vivo) is “higher bone uptake and retention”. Moreover, the “palliation of bone pain” value in the series with bone pain (Phase II pilot study, Atkins et al. (1995)) was “palliation of bone pain”. The “relief of bone pain in humans” value with bone pain (particular efficacy at about 9 to about 25 mCi per 70 kg, WO 95/29706) is on record as “dose-dependent relief of bone pain”. Further, the “contamination and radiation cystitis risk” value in the series on bone marrow was “less risk of contamination and radiation cystitis”.
